Biological target: hCA II (Homo sapiens, UniProt P00918)
Experiment: biochemical

Structure (SMILES)	IC50
COC(=O)C1=C(N)Oc2c(c(=O)oc3ccc(C)cc23)C1c1ccccc1OCc1cc2ccccc2oc1=O (stereo not shown) [Compound 12e, 2-Amino-9-methyl-5-oxo-4-[2-(2-oxo-2H-chromen-3-ylmethoxy)-phenyl]-4H,5H-pyrano[3,2-c]chromene-3-carboxylic Acid Methyl Ester]	21.8 ± 3.32 µM
CCOC(=O)C1=C(N)Oc2c(c(=O)oc3cc(O)ccc23)C1c1ccccc1OCc1cc2ccccc2oc1=O (stereo not shown) [Compound 12j, 2-Amino-8-hydroxy-5-oxo-4-[2-(2-oxo-2H-chromen-3-ylmethoxy)-phenyl]-4H,5H-pyrano[3,2-c]chromene-3-carboxylic Acid Ethyl Ester]	7.78 ± 0.08 µM
N#CC1=C(N)Oc2c(c(=O)oc3cc(O)ccc23)C1c1ccccc1OCc1cc2ccccc2oc1=O (stereo not shown) [Compound 12h, 2-Amino-8-hydroxy-5-oxo-4-[2-(2-oxo-2H-chromen-3-ylmethoxy)-phenyl]-4H,5H-pyrano[3,2-c]chromene-3-carbonitrile]	4.55 ± 0.22 µM
COC(=O)C1=C(N)Oc2c(c(=O)oc3cc(O)ccc23)C1c1ccccc1OCc1cc2ccccc2oc1=O (stereo not shown) [Compound 12i, 2-Amino-8-hydroxy-5-oxo-4-[2-(2-oxo-2H-chromen-3-ylmethoxy)-phenyl]-4H,5H-pyrano[3,2-c]chromene-3-carboxylic Acid Methyl Ester]	4.91 ± 1.13 µM
